Results taken from patent US20240299360A1, “ADAMTS INHIBITORS, PREPARATION METHODS AND MEDICINAL USES THEREOF” (Jiangsu Hengrui Pharmaceuticals Co., Ltd., priority 2020, published 2024).

What was measured:
Assay type in all cases: biochemical
[1] = molecular target: T1, ADAMTS-5 recombinant protein (Homo sapiens (Human), UniProt Q9UNA0); experiment: In vitro ELISA of ADAMTS-5 activity (Aggrecan-IGD enzymatic assay); details: aggrecan-IGD substrate, ARGSVIL-peptide ELISA, 37° C. 45 minutes
Procedure: In this assay, the enzymatic activity of recombinant ADAMTS-5 protein (catalog #2198-AD, R&D Systems) was assayed with a protein substrate, the aggrecan IGD protein. The aggrecan IGD protein is a polypeptide connecting human aggrecan globular domains 1 and 2 (T331-G458) expressed in E. Coli with a C-terminal His-tag (catalog #30411000, BIOTEZ). The enzymatic product ARGSVIL-peptide was detected using an ELISA kit from BioTEZ (catalog #30510111).
An assay buffer containing 50 mM HEPES pH 7.5, 100 mM NaCl, 5 mM CaCl2), 0.1% CHAPS and 5% Glycerol was prepared. Recombinant ADAMTS-5 protein was diluted to 0.3 nM in the assay buffer. Ten μl of […] and 10 μl of compound solution was transferred to each well of a 96-well plate and incubated at room temperature for 15 minutes. Substrate aggrecan-IGD was diluted to 100 nM with the assay buffer and 20 μl was added to each well. The plate was incubated at 37° C. for 45 minutes. After incubation, the newly generated epitope ARGSVIL-peptides were measured using the Aggrecanase Activity ELISA Assay Kit following the manufacturer's instructions. Then, 100 μl of stop solution was added and the absorbance of each well was read at 450 nm, using […] as reference on a TECAN plate reader.
A standard curve of the ELISA assay was generated in GraphPad Prism using Sigmoidal 4PL function and the corresponding peptide concentrations were calculated based on the standard curve. The IC50 values were calculated using function “log (inhibitor) vs. response—Variable slope (four parameters)”. (See Table 2).

[2] = molecular target: ADAMTS-4 recombinant protein (Homo sapiens (Human), UniProt O75173); experiment: In vitro fluorescence (FRET-peptide) enzymatic assay of ADAMTS-4 activity; details: FRET peptide substrate 15 μM, 10 nM enzyme, 37° C. 3 hours
ADAMTS-4 recombinant protein, sequence (O75173 213-685): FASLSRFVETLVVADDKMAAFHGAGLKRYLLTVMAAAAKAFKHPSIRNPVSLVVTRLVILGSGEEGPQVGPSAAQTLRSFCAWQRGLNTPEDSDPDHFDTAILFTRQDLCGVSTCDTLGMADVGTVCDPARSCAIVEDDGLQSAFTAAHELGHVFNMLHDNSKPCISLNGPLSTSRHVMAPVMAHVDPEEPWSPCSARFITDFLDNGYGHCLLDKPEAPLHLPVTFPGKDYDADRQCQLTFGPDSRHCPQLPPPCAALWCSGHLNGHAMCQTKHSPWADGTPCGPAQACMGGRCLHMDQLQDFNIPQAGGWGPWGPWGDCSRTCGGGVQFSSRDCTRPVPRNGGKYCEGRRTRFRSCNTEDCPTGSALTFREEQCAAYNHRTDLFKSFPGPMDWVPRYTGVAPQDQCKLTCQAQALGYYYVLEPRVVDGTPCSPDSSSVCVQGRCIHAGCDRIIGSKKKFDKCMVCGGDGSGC
Procedure: (§1) A FRET (fluorescence resonance energy transfer) peptide was cleaved by recombinant ADAMTS-4 or ADAMTS-5 proteins into two separate fragments resulting in an increase of fluorescence signal which was quantified. The peptide was 5-FAM-[…](5-TAMRA)K-NH2, customized from ANASPEC. ADAMTS-4 recombinant protein (catalog #4307-AD) and ADAMTS-5 recombinant protein (catalog #2198-AD) were purchased from R&D Systems.
(§2) An assay buffer containing 50 mM HEPES pH 7.5, 100 mM NaCl, 5 mM CaCl2, 0.1% CHAPS and 5% Glycerol was prepared. A volume of 2.5 μl of compound in the assay buffer was dispensed to a 384-well plate, and 2.5 μl of ADAMTS-4 or ADAMTS-5 protein (final concentration in the reaction was 10 nM) was added. The compounds and proteins were pre-incubated at room temperature for 15 minutes. Then, 5 μl of substrate was added to each well. The final substrate concentrations for ADAMTS-4 and ADAMTS-5 were 15 μM and 8 μM, respectively. The fluorescence signal in each well was determined, after incubation at 37° C. for 3 hours, on a TECAN plate reader (Excitation, 490 nm; Emission, 520 nm).
(§3) The data was inputted into GraphPad Prism, and the IC50 values were calculated using function “log (inhibitor) vs. response—Variable slope (four parameters)”. (See Table 1)

[3] = molecular target: T1, ADAMTS-5 recombinant protein; experiment: In vitro fluorescence (FRET-peptide) enzymatic assay of ADAMTS-5 activity; details: FRET peptide substrate 8 μM, 10 nM enzyme, 37° C. 3 hours
Procedure: as §1, §2, §3

T1 sequence (Q9UNA0 262-622): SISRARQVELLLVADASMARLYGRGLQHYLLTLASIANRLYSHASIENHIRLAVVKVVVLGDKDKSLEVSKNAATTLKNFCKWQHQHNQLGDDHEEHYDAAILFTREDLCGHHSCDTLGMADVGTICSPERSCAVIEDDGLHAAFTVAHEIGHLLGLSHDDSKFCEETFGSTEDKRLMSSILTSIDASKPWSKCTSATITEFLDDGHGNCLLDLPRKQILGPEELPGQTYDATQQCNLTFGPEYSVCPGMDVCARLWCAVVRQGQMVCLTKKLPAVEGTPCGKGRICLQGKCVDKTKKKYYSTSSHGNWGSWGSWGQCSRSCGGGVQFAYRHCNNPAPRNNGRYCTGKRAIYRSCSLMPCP

SMILES | IC50 [1] [nM] | IC50 [2] [nM] | IC50 [3] [nM]
Cn1ccnc1C1(CCC(=O)N2Cc3cc(Cl)c(C(F)(F)F)cc3C2)NC(=O)NC1=O (centres unmarked) [Example 73, 5-(3-(5-chloro-6-(trifluoromethyl)isoindolin-2-yl)-3-oxopropyl)-5-(1-methyl-1H-imidazol-2-yl)imidazolidine-2,4-dione] | 47 | 61 | 27
O=C1NC(=O)[C@](CCC(=O)N2Cc3cccnc3C2)(C2CC2)N1 [Example 12, (S)-5-cyclopropyl-5-(3-(5,7-dihydro-6H-pyrrolo[3,4-b]pyridin-6-yl)-3-oxopropyl)imidazolidine-2,4-dione] |  | 2300 | 1500
Cc1cc(C2(CCC(=O)N3Cc4cc(Cl)c(C(F)(F)F)cc4C3)NC(=O)NC2=O)no1 (centres unmarked) [Example 75, 5-(3-(5-chloro-6-(trifluoromethyl)isoindolin-2-yl)-3-oxopropyl)-5-(5-methylisoxazol-3-yl)imidazolidine-2,4-dione] | 110 | 120 | 75
O=C1NC(=O)[C@](CCC(=O)N2Cc3ccc(Cl)cc3C2)(C2CC2)N1 [Example 2, (S)-5-(3-(5-chloroisoindolin-2-yl)-3-oxopropyl)-5-cyclopropylimidazolidine-2,4-dione] | 860 | 91 | 190
O=C1NC(=O)[C@](CCC(=O)N2CCc3cc(C(F)(F)F)ccc3C2)(C2CC2)N1 [Example 6, (S)-5-cyclopropyl-5-(3-oxo-3-(6-(trifluoromethyl)-3,4-dihydroisoquinolin-2 (1H)-yl)propyl)imidazolidine-2,4-dione] | 650 | 56 | 240
Nc1cc2c(cc1Cl)CN(C(=O)CC[C@@]1(C3CC3)NC(=O)NC1=O)C2 [Example 54, (S)-5-(3-(5-amino-6-chloroisoindolin-2-yl)-3-oxopropyl)-5-cyclopropylimidazolidine-2,4-dione] | 200 | 11 | 110
Cn1ccc(C2(CCC(=O)N3Cc4cc(Cl)c(C(F)(F)F)cc4C3)NC(=O)NC2=O)n1 (centres unmarked) [Example 77, 5-(3-(5-chloro-6-(trifluoromethyl)isoindolin-2-yl)-3-oxopropyl)-5-(1-methyl-1H-pyrazol-3-yl)imidazolidine-2,4-dione] |  | 400 | 160
O=C1NC(=O)[C@](CCC(=O)N2Cc3cccc(F)c3C2)(C2CC2)N1 [Example 16, (S)-5-cyclopropyl-5-(3-(4-fluoroisoindolin-2-yl)-3-oxopropyl)imidazolidine-2,4-dione] |  | 1700 | 6200
O=C1NC(=O)[C@](C[C@@H](CO)C(=O)N2Cc3cc(Cl)c(C(F)(F)F)cc3C2)(C2CC2)N1 (single isomer, unassigned) |  | 16 | 15
O=C1NC(=O)[C@](CCC(=O)N2Cc3cc(F)c(C(F)F)cc3C2)(C2CC2)N1 [Example 74, (S)-5-cyclopropyl-5-(3-(5-(difluoromethyl)-6-fluoroisoindolin-2-yl)-3-oxopropyl)imidazolidine-2,4-dione] |  | 56 | 100
CCC(C[C@@]1(C2CC2)NC(=O)NC1=O)C(=O)N1Cc2ccc(C(F)(F)F)cc2C1 (stereo partly drawn) [Example 31-2, (5S)-5-cyclopropyl-5-(2-(5-(trifluoromethyl)isoindoline-2-carbonyl)butyl)imidazolidine-2,4-dione] | 33 |  | 
C[C@H]1CN(C(=O)CC[C@@]2(C3CC3)NC(=O)NC2=O)CCc2ccc(F)cc21 (single isomer, unassigned) [Example 27] |  | 170 | 270
CC1(C)CN(C(=O)CC[C@@]2(C3CC3)NC(=O)NC2=O)CCc2ccccc21 [Example 26, (S)-5-cyclopropyl-5-(3-(1,1-dimethyl-1,2,4,5-tetrahydro-3H-benzo[d]azepin-3-yl)-3-oxopropyl)imidazolidine-2,4-dione] |  | 3800 | 5400
C[C@@H]1c2ccccc2CN1C(=O)CC[C@@]1(C2CC2)NC(=O)NC1=O [Example 14, (S)-5-cyclopropyl-5-(3-((R)-1-methylisoindolin-2-yl)-3-oxopropyl)imidazolidine-2,4-dione] |  | 290 | 1000
O=C1NC(=O)[C@](CCC(=O)N2Cc3ccc(F)cc3C2)(C2CC2)N1 [Example 17, (S)-5-cyclopropyl-5-(3-(5-fluoroisoindolin-2-yl)-3-oxopropyl)imidazolidine-2,4-dione] |  | 310 | 370
O=C1NC(=O)[C@](CCC(=O)N2Cc3cc(Cl)c([N+](=O)[O-])cc3C2)(C2CC2)N1 [Example 50, (S)-5-(3-(5-chloro-6-nitroisoindolin-2-yl)-3-oxopropyl)-5-cyclopropylimidazolidine-2,4-dione] |  | 120 | 220
O=C1NC(=O)C(CCC(=O)N2Cc3ccc(C(F)(F)F)cc3C2)(c2nccs2)N1 (centres unmarked) [Example 43, 5-(3-oxo-3-(5-(trifluoromethyl)isoindolin-2-yl)propyl)-5-(thiazol-2-yl)imidazolidine-2,4-dione] |  | 150 | 250
O=C1NC(=O)[C@](CCC(=O)N2Cc3ccc(OC(F)F)cc3C2)(C2CC2)N1 [Example 10, (S)-5-cyclopropyl-5-(3-(5-(difluoromethoxy)isoindolin-2-yl)-3-oxopropyl)imidazolidine-2,4-dione] |  | 41 | 260
CCn1ccnc1C1(CCC(=O)N2Cc3cc(Cl)c(C(F)(F)F)cc3C2)NC(=O)NC1=O (centres unmarked) [Example 82, 5-(3-(5-chloro-6-(trifluoromethyl)isoindolin-2-yl)-3-oxopropyl)-5-(1-ethyl-1H-imidazol-2-yl)imidazolidine-2,4-dione] |  | 80 | 25
O=C1NC(=O)[C@](CCC(=O)N2Cc3ccc(CC(F)(F)F)cc3C2)(C2CC2)N1 [Example 72, (S)-5-cyclopropyl-5-(3-oxo-3-(5-(2,2,2-trifluoroethyl)isoindolin-2-yl)propyl)imidazolidine-2,4-dione] |  | 43 | 130
O=C1NC(=O)[C@](CCC(=O)N2Cc3cc(Cl)c(I)cc3C2)(C2CC2)N1 [Example 53, (S)-5-(3-(5-chloro-6-iodoisoindolin-2-yl)-3-oxopropyl)-5-cyclopropylimidazolidine-2,4-dione] |  | 240 | 170
COc1cccc2c1CCN(C(=O)CC[C@@]1(C3CC3)NC(=O)NC1=O)CC2 [Example 25, (S)-5-cyclopropyl-5-(3-(6-methoxy-1,2,4,5-tetrahydro-3H-benzo[d]azepin-3-yl)-3-oxopropyl)imidazolidine-2,4-dione] |  | 5800 | 3600
C[C@@H]1CN(C(=O)CC[C@@]2(C3CC3)NC(=O)NC2=O)CCc2ccc(F)cc21 (single isomer, unassigned) [Example 28] |  | 47 | 48
O=C1NC(=O)C(CCC(=O)N2Cc3ccc(C(F)(F)F)cc3C2)(c2ccccn2)N1 (centres unmarked) [Example 60, 5-(3-oxo-3-(5-(trifluoromethyl)isoindolin-2-yl)propyl)-5-(pyridin-2-yl)imidazolidine-2,4-dione] |  | 170 | 220
O=C1NC(=O)[C@](CCC(=O)N2Cc3ccncc3C2)(C2CC2)N1 [Example 13, (S)-5-cyclopropyl-5-(3-(1,3-dihydro-2H-pyrrolo[3,4-c]pyridin-2-yl)-3-oxopropyl)imidazolidine-2,4-dione] |  | 1400 | 4000
O=C1NC(=O)[C@](CCC(=O)N2Cc3cc(F)c(F)cc3C2)(C2CC2)N1 [Example 19, (S)-5-cyclopropyl-5-(3-(5,6-difluoroisoindolin-2-yl)-3-oxopropyl)imidazolidine-2,4-dione] |  | 260 | 330
